Values quoted from earlier work, collected in patent US20100227830A1, “USE OF ESCIN” (MARINOMED BIOTECHNOLOGIE GMBH, priority 2006, published 2010).

Test system: nuclear factor-KB (NF-κB)
Conditions: after traumatic brain injury in rats

β-escin
NF-κB expression level in tissue: significant reduction of NF-κB expression level
